These results are taken from US9428448B2, “Compounds and methods of treating obesity” (Yissum Research Development Company of the Hebrew …, priority 2008, dated 2016).

The nature of data set [1]: neurological score by the NSS method. The format is in vivo, Sabra mice. The following applies: 1 mg/kg i.p., day 10 (FIG. 11, Example 3). How it is done: (§1) This study compared the effects of Compound X and Rimonabant. Female Sabra mice (32 g average weight) were divided randomly to 3 experimental groups: (a) control; (b) Compound X; and (3) Rimonabant, 10 mice in each group. Food consumption and weight were evaluated during the experiment. During the second week, mice were evaluated for cognitive function during 5 days using the eight arm maze. 15 min before evaluation mice were injected i.p. with either saline or 1 mg/kg Compound X or Rimonabant (days 8-12).
Neurological score was evaluated by the NSS method Neurological function was assessed by a 10 point scale based on reflexes and task performance 37: Exit from a circle 1 meter in diameter in less than 1 minute, seeking, walking a straight line, startle reflex, grasping reflex, righting reflex, placing reflex, corneal reflex, maintaining balance on a beam 3, 2 and 1 cm in width, climbing onto a square and a round pole. For each task failed or abnormal reflex reaction a score of 1 was assigned. Thus, a higher score indicates poorer neurological function on day 10.

A further data set deals with ALT levels. Description: ALT levels in mice. The format is in vivo, Sabra mice. The settings on record: 1 mg/kg i.p., mice sacrificed 71 days after treatment (FIG. 13, Example 3). The protocol: as §1
Mice were sacrificed 71 days after treatment, and ALT levels were measured.

For data set [2], the system named is 2-AG levels in the hypothalamus. Description: 2-AG levels in the hypothalamus (TLC followed by GC-MS). Format: in vivo, mice. The settings on record: treated group vs. control, 1 mg/kg i.p., p<0.05 (FIG. 5). The protocol:
(§2) Mice were decapitated and their brains rapidly removed, and the hypothalamus and hippocampus were dissected. 2-AG levels in the hypothalamus were evaluated using TLC followed by GC-MS analysis.

Data set [3] is described as follows: locomotor activity in an open field (activity index). The format is in vivo, Sabra mice. The following applies: 1 mg/kg i.p.; for effect on activity (mean number of crossings per minute; comparison study): open field (FIG. 10, Example 3). The protocol:
Activity of the mice was assessed in an open field (20×30 cm) divided into 12 squares of equal size. Two mice were observed simultaneously for 5 minutes. The activity test was performed on day 11 of the experiment. Locomotor activity was recorded by counting the number of crossings by the mice at one minute intervals. The results, depicted in FIG. 4, are presented as the mean number of crossings per minute.
Activity of the mice was assessed in an open field (20×30 cm) divided into 12 squares of equal size, as detailed in Example 2. The results, depicted in FIG. 10, are presented as the mean number of crossings per minute.

Data set [4] can be described thus: total food consumption in mice. The format is in vivo, Sabra mice. The following applies: 1 mg/kg i.p.; for effect on total food consumption in the second week (comparison study): second week during administration, vs control (FIG. 9B, Example 3). How it is done:
(§3) Young female Sabra mice were assigned at random to different groups (untreated controls or treated with 1 mg/kg Compound X Intra Peritoneally) of 10 mice per cage. The weights of the animals were similar at the beginning of the experiment. All cages contained wood-chip bedding and were placed in a temperature-controlled room at 22° C., on a 12-h light/dark cycle (lights on at 07.00 h). The mice had free access to water 24 h a day. The mice were fed ad-libitum, body weight was measured twice a week during the experiment and food consumption was calculated.
Total food consumption was evaluated in the first week before treatment and at the second week during the treatment (FIGS. 2A and 2B).
as §1
Total food consumption was evaluated in the first week before treatment and at the second week during the treatment (FIGS. 9A and 9B, respectively).

Data set [5] in a line: cognitive function evaluated by an 8 arm maze. The format is in vivo, Sabra mice. The settings on record: for effect on cognitive function (8 arm maze; comparison study): 1 mg/kg, second week of treatment (FIG. 12, Example 3). The protocol: Mice were subjected to the treatment regimen outlined in Example 1, and during the second week of treatment their cognitive function was evaluated by an 8 arm maze on the second week of the experiment 15 minutes after injection. Two hours before the test, the mice were on a water deprivation schedule. At the end of each arm there was a drop of water as a reward. Each mouse was evaluated for its performance in the maze. The mice were observed until they made entries to all eight arms or until they completed 24 entries (whichever came first). The results, depicted in FIG. 3, were calculated as AUC (area under the curve) as follows: day2+day3+day4+day5−4(day1).
as §1
Mice were subjected to treatment with Compound X (1 mg/kg) or Rimonabant (1 mg/kg), and during the second week of treatment their cognitive function was evaluated by an 8 arm maze as described above in Example 2.

The test system of data set [6] is norepinephrine (NE) levels. The data set is described as follows: norepinephrine (NE) levels in hippocampus and hypothalamus (HPLC-ECD). The format is in vivo, mice. The settings on record: 1 mg/kg i.p. How it is done:
as §2
(§4) Serotonin (5-HT) and norepinephrine (NE) were valuated in the hypothalamus (serotonin and norepinephrine) and hippocampus (norepinephrine), using HPLC-ECD.

Data set [7] deals with Serotonin (5-HT) levels in the hypothalamus. Description: serotonin (5-HT) levels in the hypothalamus (HPLC-ECD). Format: in vivo, mice. The settings on record: treated group vs. control, 1 mg/kg i.p., p<0.05 (FIG. 6). How it is done:
as §2, §4

The nature of data set [8]: body weight of mice during treatment. Format: in vivo, Sabra mice. The following applies: for effect on weight vs control (comparison study): 1 mg/kg i.p. days 8-12, female Sabra mice (FIG. 8, Example 3). The protocol:
as §3
Compound X may also be given orally. Compound X (gavage) or saline (control) were administered to Sabra mice by oral gavage.
as §1

In the next data set the target is T1, PPAR-α (Homo sapiens, UniProt Q07869).
T1 sequence (Q07869 1-468): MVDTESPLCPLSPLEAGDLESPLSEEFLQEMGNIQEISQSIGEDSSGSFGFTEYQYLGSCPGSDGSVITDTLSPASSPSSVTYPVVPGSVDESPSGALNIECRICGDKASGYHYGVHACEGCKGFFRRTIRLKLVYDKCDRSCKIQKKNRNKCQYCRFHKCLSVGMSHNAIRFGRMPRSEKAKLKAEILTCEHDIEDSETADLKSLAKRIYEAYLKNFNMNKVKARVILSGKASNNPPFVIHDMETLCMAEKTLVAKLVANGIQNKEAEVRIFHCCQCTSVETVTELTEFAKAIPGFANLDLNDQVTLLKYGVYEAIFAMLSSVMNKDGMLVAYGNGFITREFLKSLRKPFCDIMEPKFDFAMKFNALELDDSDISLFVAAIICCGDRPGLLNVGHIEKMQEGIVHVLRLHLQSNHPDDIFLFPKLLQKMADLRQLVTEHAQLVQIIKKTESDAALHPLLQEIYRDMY
The following applies: reported by Giuseppe et al. 2006; read-out: EC50 for stimulating transcriptional activity of PPAR-α; cited from earlier work.

With `CCCCCCCC/C=C\CCCCCCCC(=O)N[C@H](CO)C(C)C` [Compound X, ((Z-Octadec)-9-enoic acid 1-hydroxymethyl-2-methyl-propyl)-amide], the “effect on neurological score (NSS, 10 point scale; higher score = poorer function)” value in data set [1] is on record as “did not change the neurological score”. In the data set on ALT levels, the “effect on ALT levels” value is recorded as “slightly increased ALT levels”. The “effect on 2-AG levels in the hypothalamus” value in data set [2] is reported as “significant decrease”. For the same molecule, in [3] (day 11, open field, p<0.001 (FIG. 4, Example 2)), the “effect on activity (mean number of crossings per minute)” value was “significant increase in the activity”. In data set [3], the “effect on activity (mean number of crossings per minute; comparison study)” value is “significant increase in the activity”. Moreover, the increased activity in data set [3] (p<0.001 (Examples 1-2 conclusion)) is reported as 36%. Also, the “decrease in food consumption” value in data set [4] (p<0.05 (Examples 1-2 conclusion)) is 7%. For the same molecule, the “effect on total food consumption in the second week (comparison study)” value in [4] was “decreased food consumption significantly”. For the same molecule, the “effect on total food consumption in the second week” value in [4] (second week during treatment, P<0.05 (FIG. 2B, Example 1)) is reported as “significantly decreased food consumption”. Also, the “improvement in cognitive function (8 arm maze)” value in [5] (1 mg/kg i.p. (Examples 1-2 conclusion)) was determined as 400%. Moreover, in data set [5] (1 mg/kg i.p., second week, 15 minutes after injection (FIG. 3, Example 2)), the “effect on cognitive function (8 arm maze, AUC)” value is listed as “improved significantly”. Further, the “effect on cognitive function (8 arm maze; comparison study)” value in [5] is listed as “improved significantly”. Also, the “effect on NE levels in the hippocampus” value in data set [6] (p<0.05 (FIG. 7A)) was “significantly increased”. Besides, the “effect on NE levels in the hypothalamus” value in data set [6] (p<0.05 (FIG. 7B)) is reported as “significantly increased”. The “effect on serotonin levels in the hypothalamus” value in data set [7] was “increased significantly”. For the same molecule, the “duration of the decrease in weight after administration” value in data set [8] (1 mg/kg Intra Peritoneally, female Sabra mice (Example 1)) is “about 15 days”. Also, in data set [8], the “effect on weight vs control (comparison study)” value is recorded as “significant decrease in weight”. The “continuation of the weight effect after re-administration on day 43” value in data set [8] (administered again on day 43, female Sabra mice (Example 3)) is reported as 28 days. Besides, the “continuation of the weight effect without further administration” value in data set [8] (after 1 mg/kg i.p. days 8-12, female Sabra mice (Example 3)) was 31 days. In data set [8] (oral gavage vs saline control, Sabra mice (FIG. 1B)), the “effect on body weight, oral gavage” value is on record as “significantly decreasing the weight”.
As to `Cc1c(C(=O)NN2CCCCC2)nn(-c2ccc(Cl)cc2Cl)c1-c1ccc(Cl)cc1` [Rimonabant, reference compound], the “effect on neurological score (NSS, 10 point scale; higher score = poorer function)” value in data set [1] is given as “tendency to increase it”. Moreover, the “effect on ALT levels” value in the data set on ALT levels was “raised them significantly”. Also, in data set [3], the “effect on activity (mean number of crossings per minute; comparison study)” value is “significantly decreased activity”. Moreover, in data set [4], the “effect on total food consumption in the second week (comparison study)” value is “no significant differences”. In data set [5], the “effect on cognitive function (8 arm maze; comparison study)” value is on record as “did not significantly affect cognitive function”. In data set [8], the “effect on weight vs control (comparison study)” value is recorded as “no significant difference in weight loss”.
On to `CCCCCCCC/C=C\CCCCCCCC(=O)N[C@H](C)CO` [KDS-5104, (Z)—(R)-9-octadecenamide, N-2(hydroxyethyl,1-methyl)], for which the EC50 (in general, the concentration giving half of the maximal effect) at PPAR-α was 100 nM.
